Laboratory results taken from patent US8324250B2 (Hoffmann-La Roche Inc., priority 2009, dated 2012).

Molecular target: T1, recombinant human NK3 receptor (Homo sapiens, UniProt P29371)
T1 construct: expressed in transfected cells; host or cells: HEK293 cells (transient expression), membranes
T1 sequence (P29371 1-465): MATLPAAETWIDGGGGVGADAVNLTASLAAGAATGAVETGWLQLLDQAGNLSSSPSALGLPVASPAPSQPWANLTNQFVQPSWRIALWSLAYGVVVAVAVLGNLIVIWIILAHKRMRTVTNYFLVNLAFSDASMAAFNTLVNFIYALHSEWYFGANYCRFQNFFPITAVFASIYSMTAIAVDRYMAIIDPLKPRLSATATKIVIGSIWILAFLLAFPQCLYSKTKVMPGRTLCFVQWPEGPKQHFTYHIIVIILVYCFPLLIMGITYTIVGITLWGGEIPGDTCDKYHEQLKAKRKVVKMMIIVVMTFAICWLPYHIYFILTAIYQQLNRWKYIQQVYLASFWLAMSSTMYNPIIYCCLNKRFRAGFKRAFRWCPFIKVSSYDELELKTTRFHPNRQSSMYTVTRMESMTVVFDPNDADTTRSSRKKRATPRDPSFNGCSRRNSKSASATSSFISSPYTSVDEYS
Assay: [3H]SR142801 competition binding assay
Settings: membranes from HEK293 cells transiently expressing recombinant human NK3 receptor; [3H]SR142801 radioligand; 75 min at RT; Ki by Cheng-Prussoff; read-out: Data Ki (hNK-3 receptor affinity)
Method in brief: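 Membranes from HEK293 cells transiently expressing the receptor, 5 μg protein/well, in 50 mM Tris-HCl pH 7.4 with 4 mM MnCl2, 1 μM phosphoramidon, 0.1% BSA; nonspecific binding defined with 10 μM SB222200. Filtration and scintillation counting; IC50 from Hill fit, Ki by Cheng-Prussoff using saturation-derived KD, duplicates.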

SMILES	Ki
CC(=O)c1ccc(N2CCN(C(=O)N3CCC(C(=O)N[C@@H](C)c4ccccc4)(c4ccccc4)CC3)CC2)cc1 [Example 207, 1-[4-(4-Acetyl-phenyl)-piperazine-1-carbonyl]-4-phenyl-piperidine-4-carboxylic acid ((S)-1-phenyl-ethyl)-amide]	36.3 nM
Cc1ccc(N2CCN(C(=O)N3CCC(C(=O)N[C@@H](C)c4ccccc4)(c4ccccc4)CC3)CC2)cc1 [Example 208, 4-Phenyl-1-(4-p-tolyl-piperazine-1-carbonyl)-piperidine-4-carboxylic acid ((S)-1-phenyl-ethyl)-amide]	70.9 nM
C[C@H](NC(=O)C1(c2ccccc2)CCN(C(=O)N2CCN(c3cnccn3)CC2)CC1)c1ccccc1 [Example 209, 4-Phenyl-1-(2,3,5,6-tetrahydro-[1,2′]bipyrazinyl-4-carbonyl)-piperidine-4-carboxylic acid ((S)-1-phenyl-ethyl)-amide]	58.4 nM
C[C@H](NC(=O)C1(c2ccccc2)CCN(C(=O)N2CCN(c3ccc(S(C)(=O)=O)cc3F)CC2)CC1)c1ccccc1 [Example 211, 1-[4-(2-Fluoro-4-methanesulfonyl-phenyl)-piperazine-1-carbonyl]-4-phenyl-piperidine-4-carboxylic acid ((S)-1-phenyl-ethyl)-amide]	29.4 nM
Cc1nnc(C)n1C1CCN(C(=O)N2CCC(C(=O)N[C@@H](C)c3ccccc3)(c3ccccc3)CC2)CC1 [Example 220, 1-[4-(3,5-Dimethyl-[1,2,4]triazol-4-yl)-piperidine-1-carbonyl]-4-phenyl-piperidine-4-carboxylic acid ((S)-1-phenyl-ethyl)-amide]	63.9 nM
C[C@H](NC(=O)C1(c2ccccc2)CCN(C(=O)N2CCN(c3cccnc3)CC2)CC1)c1ccccc1 [Example 224, 4-Phenyl-1-(4-pyridin-3-yl-piperazine-1-carbonyl)-piperidine-4-carboxylic acid ((S)-1-phenyl-ethyl)-amide]	63.8 nM
C[C@H](NC(=O)C1(c2ccccc2)CCN(C(=O)N2CCN(c3cc(C#N)ccn3)CC2)CC1)c1ccccc1 [Example 225, 1-[4-(4-Cyano-pyridin-2-yl)-piperazine-1-carbonyl]-4-phenyl-piperidine-4-carboxylic acid ((S)-1-phenyl-ethyl)-amide]	50.6 nM
Cc1cccc(N2CCN(C(=O)N3CCC(C(=O)N[C@@H](C)c4ccccc4)(c4ccccc4)CC3)CC2)c1 [Example 226, 4-Phenyl-1-(4-m-tolyl-piperazine-1-carbonyl)-piperidine-4-carboxylic acid ((S)-1-phenyl-ethyl)-amide]	64.8 nM
Cc1ccccc1N1CCN(C(=O)N2CCC(C(=O)N[C@@H](C)c3ccccc3)(c3ccccc3)CC2)CC1 [Example 229, 4-Phenyl-1-(4-o-tolyl-piperazine-1-carbonyl)-piperidine-4-carboxylic acid ((S)-1-phenyl-ethyl)-amide]	34.9 nM
C[C@H](NC(=O)C1(c2ccccc2)CCN(C(=O)N2CCN(c3ccccc3)CC2)CC1)c1ccccc1 [Example 232, 4-Phenyl-1-(4-phenyl-piperazine-1-carbonyl)-piperidine-4-carboxylic acid ((S)-1-phenyl-ethyl)-amide]	36.3 nM

Now from value to compound:

Ki	SMILES
8.8 nM	C[C@H](NC(=O)C1(c2ccccc2)CCN(C(=O)N2CCN(c3ccc(F)cc3)CC2)CC1)c1ccccc1 [Example 213, 1-[4-(4-Fluoro-phenyl)-piperazine-1-carbonyl]-4-phenyl-piperidine-4-carboxylic acid ((S)-1-phenyl-ethyl)-amide]
9 nM	Cc1noc(C2CCN(C(=O)N3CCC(C(=O)N[C@@H](C)c4ccccc4)(c4ccccc4)CC3)CC2)n1 [Example 214, 1-[4-(3-Methyl-[1,2,4]oxadiazol-5-yl)-piperidine-1-carbonyl]-4-phenyl-piperidine-4-carboxylic acid ((S)-1-phenyl-ethyl)-amide]
20.6 nM	C[C@H](NC(=O)C1(c2ccccc2)CCN(C(=O)N2CCN(C3CCCC3)CC2)CC1)c1ccccc1 [Example 215, 1-(4-Cyclopentyl-piperazine-1-carbonyl)-4-phenyl-piperidine-4-carboxylic acid ((S)-1-phenyl-ethyl)-amide]
17.2 nM	C[C@H](NC(=O)C1(c2ccccc2)CCN(C(=O)N2CCC(N3CCCCC3=O)CC2)CC1)c1ccccc1 [Example 216, 1-(2-Oxo-[1,4′]bipiperidinyl-1′-carbonyl)-4-phenyl-piperidine-4-carboxylic acid ((S)-1-phenyl-ethyl)-amide]
5.2 nM	C[C@H](NC(=O)C1(c2ccccc2)CCN(C(=O)N2CCC(N3CCSCC3)CC2)CC1)c1ccccc1 [Example 218, 4-Phenyl-1-(4-thiomorpholin-4-yl-piperidine-1-carbonyl)-piperidine-4-carboxylic acid ((S)-1-phenyl-ethyl)-amide]
12.5 nM	C[C@H](NC(=O)C1(c2ccccc2)CCN(C(=O)N2CCN(c3ccc(Cl)cc3)CC2)CC1)c1ccccc1 [Example 219, 1-[4-(4-Chloro-phenyl)-piperazine-1-carbonyl]-4-phenyl-piperidine-4-carboxylic acid ((S)-1-phenyl-ethyl)-amide]
11.7 nM	Cc1noc(C2CCN(C(=O)N3CCC(C(=O)N[C@@H](C)c4ccc(F)cc4)(c4ccccc4)CC3)CC2)n1 [Example 221, 1-[4-(3-Methyl-[1,2,4]oxadiazol-5-yl)-piperidine-1-carbonyl]-4-phenyl-piperidine-4-carboxylic acid [(S)-1-(4-fluoro-phenyl)-ethyl]-amide]
10 nM	C[C@H](NC(=O)C1(c2ccccc2)CCN(C(=O)N2CCC(N3CCSCC3)CC2)CC1)c1ccc(F)cc1 [Example 222, 4-Phenyl-1-(4-thiomorpholin-4-yl-piperidine-1-carbonyl)-piperidine-4-carboxylic acid [(S)-1-(4-fluoro-phenyl)-ethyl]-amide]
6 nM	C[C@H](NC(=O)C1(c2ccccc2)CCN(C(=O)N2CCC(N3CCS(=O)(=O)CC3)CC2)CC1)c1ccc(F)cc1 [Example 223, 1-[4-(1,1-Dioxo-1λ6-thiomorpholin-4-yl)-piperidine-1-carbonyl]-4-phenyl-piperidine-4-carboxylic acid [(S)-1-(4-fluoro-phenyl)-ethyl]-amide]
24.9 nM	C[C@H](NC(=O)C1(c2ccccc2)CCN(C(=O)N2CCN(c3ccc(C#N)cn3)CC2)CC1)c1ccccc1 [Example 227, 1-[4-(5-Cyano-pyridin-2-yl)-piperazine-1-carbonyl]-4-phenyl-piperidine-4-carboxylic acid ((S)-1-phenyl-ethyl)-amide]
22.1 nM	C[C@H](NC(=O)C1(c2ccccc2)CCN(C(=O)N2CCN(C3CCCCC3)CC2)CC1)c1ccccc1 [Example 230, 1-(4-Cyclohexyl-piperazine-1-carbonyl)-4-phenyl-piperidine-4-carboxylic acid ((S)-1-phenyl-ethyl)-amide]
3.4 nM	CC[C@H](NC(=O)C1(c2ccccc2)CCN(C(=O)N2CCN(c3ccc(F)cc3)CC2)CC1)c1ccccc1 [Example 231, 1-[4-(4-Fluoro-phenyl)-piperazine-1-carbonyl]-4-phenyl-piperidine-4-carboxylic acid ((S)-1-phenyl-propyl)-amide]
5.3 nM	C[C@H](NC(=O)C1(c2ccccc2)CCN(C(=O)N2CCN(c3ccc(F)cc3)CC2)CC1)C1CCCCC1 [Example 233, 1-[4-(4-Fluoro-phenyl)-piperazine-1-carbonyl]-4-phenyl-piperidine-4-carboxylic acid ((S)-1-cyclohexyl-ethyl)-amide]

Tested on: not given
Assay: not given
Settings: phase II trial; negative symptoms (depression, anhedonia, social isolation, memory and attention deficits); cited from earlier work

SMILES	activity in the treatment of negative symptoms of schizophrenia
CC(=O)N(C)C1(c2ccccc2)CCN(CCC[C@]2(c3ccc(Cl)c(Cl)c3)CCCN(C(=O)c3ccccc3)C2)CC1 [SR 142,801, Osanetant]	inactive

Same assay, conditions: phase II trial; positive symptoms (altered behaviour, delusion, hallucinations, extreme emotions, excited motor activity, incoherent speech); cited from earlier work

SMILES	activity on positive symptoms of schizophrenia
CC(=O)N(C)C1(c2ccccc2)CCN(CCC[C@]2(c3ccc(Cl)c(Cl)c3)CCCN(C(=O)c3ccccc3)C2)CC1 [SR 142,801, Osanetant]	active
